# Data reported in DBAASP.
# What was measured:
# Experiment in all cases: ≥ marks a high value that may be exact or a test limit, other limits are often not marked, values filed in µg/mL are converted to µM
# [1] = system: Escherichia coli ATCC 25922
# [2] = system: Candida albicans ATCC 2002
# [3] = system: Staphylococcus aureus ATCC 25923
# [4] = system: Pseudomonas aeruginosa CMCCB 10104
# [5] = system: Enterococcus faecalis ATCC 29212
# Candida albicans = system: Candida albicans
# [6] = system: Staphylococcus epidermidis
# [7] = system: Pseudomonas aeruginosa H103
# Escherichia coli UB1005 = system: Escherichia coli UB1005
# [8] = system: Salmonella enterica serovar Typhimurium
Structure (SMILES),MIC [1] [µM],MIC [2] [µM],MIC [3] [µM],MIC [4] [µM],MIC [5] [µM],MIC (Candida albicans) [µM],MIC [6] [µM],MIC [7] [µM],MIC (Escherichia coli UB1005) [µM],MIC [8] [µM]
CC[C@H](C)[C@H](NC(=O)CNC(=O)[C@H](C)NC(=O)[C@H](Cc1ccccc1)NC(=O)[C@H](CC(C)C)NC(=O)[C@H](CCCCN)NC(=O)[C@@H]1CCCN1C(=O)[C@H](CC(C)C)NC(=O)[C@@H](N)Cc1ccccc1)C(=O)N[C@H](C(=O)N[C@@H](CO)C(=O)N[C@@H](CCCCN)C(=O)N[C@@H](CC(N)=O)C(=O)N[C@@H](Cc1ccccc1)C(=O)O)[C@@H](C)CC [FLPKLFAGIISKNF],6.58,3.32,13.2,6.58,,,,,,
CC[C@H](C)[C@H](NC(=O)CN)C(=O)N[C@@H](Cc1ccccc1)C(=O)N[C@@H](CO)C(=O)N[C@@H](CCCCN)C(=O)N[C@H](C(=O)N[C@@H](CO)C(=O)NCC(=O)N[C@@H](CCCCN)C(=O)N[C@@H](C)C(=O)N[C@H](C(=O)N[C@@H](CCCCN)C(=O)N[C@@H](CC(N)=O)C(=O)N[C@@H](CC(C)C)C(=O)N[C@@H](Cc1ccccc1)C(=O)N[C@H](C(=O)N[C@@H](CCCCN)C(=O)NCC(=O)N[C@@H](C)C(=O)N[C@@H](CCCCN)C(=O)N[C@@H](CC(N)=O)C(=O)N[C@H](C(=O)NCC(=O)N[C@@H](CCCCN)C(=O)N[C@@H](CCC(=O)O)C(=O)N[C@H](C(=O)NCC(=O)N[C@@H](CCSC)C(=O)N[C@@H](CC(=O)O)C(=O)N[C@H](C(=O)N[C@H](C(=O)N[C@@H](CCCN=C(N)N)C(=O)N[C@H](C(=O)NCC(=O)N[C@H](C(=O)N[C@@H](CC(=O)O)C(=O)N[C@H](C(=O)N[C@H](C(=O)NCC(=O)N[C@H]1CSSC[C@@H](C(=O)O)NC(=O)[C@H](CCC(=O)O)NC(=O)CNC(=O)[C@H](CCCCN)NC(=O)[C@H]([C@@H](C)CC)NC(=O)[C@H](CCCCN)NC1=O)C(C)C)C(C)C)[C@@H](C)CC)[C@@H](C)O)C(C)C)C(C)C)C(C)C)C(C)C)[C@@H](C)CC)[C@@H](C)CC)[C@@H](C)CC [GIFSKISGKAIKNLFIKGAKNVGKEVGMDVVRTGIDVVGCKIKGEC],1.83,1.83,0.915,3.66,,,,,,
CC(C)C[C@H](NC(=O)[C@H](CC(C)C)NC(=O)[C@H](CC(N)=O)NC(=O)[C@H](CCCCN)NC(=O)[C@@H](NC(=O)[C@@H](NC(=O)[C@H](C)NC(=O)[C@H](CC(C)C)NC(=O)[C@@H](NC(=O)CN)C(C)C)[C@@H](C)O)C(C)C)C(=O)N[C@@H](CC(N)=O)C(=O)NCC(=O)N[C@H](C(=O)NCC(=O)N[C@@H](CC(=O)O)C(=O)NCC(=O)N[C@@H](C)C(=O)N[C@@H](C)C(=O)N[C@@H](CCC(N)=O)C(=O)N[C@@H](CO)C(=O)N[C@H](C(=O)N[C@@H](CC(C)C)C(=O)N[C@@H](CCCCN)C(=O)N[C@H](C(=O)N[C@@H](CC(C)C)C(=O)N[C@@H](CO)C(=O)N[C@H]1CSSC[C@@H](C(=O)O)NC(=O)[C@H](CC(=O)O)NC(=O)[C@H](CC(N)=O)NC(=O)[C@H](CO)NC(=O)[C@H](CC(C)C)NC(=O)[C@H](CCCCN)NC1=O)[C@@H](C)O)C(C)C)[C@@H](C)O [GVLATVKNLLNGTGDGAAQSVLKTLSCKLSNDC],2.4,1.22,1.22,4.8,,,,,,
NCCCC[C@H](NC(=O)[C@H](Cc1c[nH]c2ccccc12)NC(=O)[C@H](Cc1c[nH]c2ccccc12)NC(=O)[C@H](CCCN=C(N)N)NC(=O)[C@@H](N)CCCCN)C(=O)N[C@@H](Cc1c[nH]c2ccccc12)C(=O)N[C@@H](Cc1c[nH]c2ccccc12)C(=O)N[C@@H](CCCN=C(N)N)C(=O)N[C@@H](CCCN=C(N)N)C(=O)O [KRWWKWWRR],,,0.7,,11.1,5.6,0.7,11.1,2.8,5.6
NCCCC[C@H](N)C(=O)N[C@@H](CCCN=C(N)N)C(=O)N[C@@H](Cc1c[nH]c2ccccc12)C(=O)N[C@@H](Cc1c[nH]c2ccccc12)C(=O)N[C@@H](Cc1c[nH]c2ccccc12)C(=O)N[C@@H](Cc1c[nH]c2ccccc12)C(=O)N[C@@H](CCCN=C(N)N)C(=O)N[C@@H](Cc1ccccc1)C(=O)N[C@@H](CCCN=C(N)N)C(=O)O [KRWWWWRFR],,,0.7,,11.7,5.9,0.7,≥ 46.9,2.9,5.9
CC[C@H](C)[C@H](NC(=O)[C@H](Cc1ccccc1)NC(=O)[C@H](CCCN=C(N)N)NC(=O)[C@@H](N)CC(C)C)C(=O)N[C@@H](CC(C)C)C(=O)N[C@@H](Cc1c[nH]c2ccccc12)C(=O)N[C@@H](Cc1c[nH]c2ccccc12)C(=O)N[C@@H](CCCCN)C(=O)N[C@@H](CCCN=C(N)N)C(=O)O [LRFILWWKR],,,1.6,,6.4,6.4,1.6,25.7,3.2,6.4
CC(C)C[C@H](NC(=O)[C@H](CCCCN)NC(=O)[C@H](CCCN=C(N)N)NC(=O)[C@H](Cc1c[nH]c2ccccc12)NC(=O)[C@@H](N)CC(N)=O)C(=O)N[C@@H](Cc1ccc(O)cc1)C(=O)N[C@@H](CCCN=C(N)N)C(=O)N[C@@H](CCCN=C(N)N)C(=O)N[C@@H](CCCCN)C(=O)O [NWRKLYRRK],,,86.5,,> 86.5,86.5,≥ 43.3,≥ 86.5,≥ 86.5,≥ 86.5
CSCC[C@H](NC(=O)[C@H](CCC(=O)O)NC(=O)[C@H](CS)NC(=O)[C@H](C)NC(=O)[C@@H](NC(=O)CNC(=O)[C@H](C)NC(=O)[C@@H](NC(=O)[C@H](Cc1ccccc1)NC(=O)[C@@H]1CCCN1C(=O)[C@H](CC(C)C)NC(=O)[C@@H](N)CCC(N)=O)C(C)C)C(C)C)C(=O)N[C@@H](CS)C(=O)N[C@@H](CCC(N)=O)C(=O)N[C@@H](CS)C(=O)N[C@H](C(=O)N[C@@H](Cc1ccc(O)cc1)C(=O)N[C@H]1CSSC[C@@H](C(=O)O)NC(=O)[C@H](CCCCN)NC(=O)[C@H](CCCCN)NC(=O)[C@H](CO)NC(=O)[C@H](C)NC(=O)[C@H](C)NC1=O)C(C)C [QLPFVAGVACEMCQCVYCAASKKC],2.23,4.47,4.47,2.23,,,,,,
CC[C@H](C)[C@H](NC(=O)[C@H](CCCN=C(N)N)NC(=O)[C@H](CC(C)C)NC(=O)[C@H](CCCN=C(N)N)NC(=O)[C@@H](N)C(C)C)C(=O)N[C@@H](CCCN=C(N)N)C(=O)N[C@H](C(=O)N[C@@H](C)C(=O)N[C@H](C(=O)N[C@H](C(=O)N[C@@H](CCCN=C(N)N)C(=O)N[C@@H](CCCCN)C(N)=O)[C@@H](C)CC)C(C)C)C(C)C [VRLRIRVAVIRK],,,4.06,,,2.03,1.08,4.06,2.03,4.06
CSCC[C@H](NC(=O)[C@H](CCCCN)NC(=O)[C@H](Cc1ccccc1)NC(=O)[C@@H](N)Cc1c[nH]c2ccccc12)C(=O)N[C@@H](CCCN=C(N)N)C(=O)N[C@@H](Cc1c[nH]c2ccccc12)C(=O)N[C@@H](Cc1c[nH]c2ccccc12)C(=O)NCC(=O)N[C@@H](CCCN=C(N)N)C(=O)O [WFKMRWWGR],,,2.9,,11.5,11.5,2.9,≥ 46.1,5.8,23.1
